The record followed here is patent US6410575B1, “Viral treatment” (The Procter & Gamble Company, priority 1999, dated 2002).

≈ marks a conversion by molar mass, not a printed value. Where “and” joins values, the source holds several entries; their conditions need not be identical. Equal values may be shown once. Read-outs that look alike come from different tables or passages of the source. Some results are limits rather than exact numbers.

For one series, the system named is hepatitis B. The experiment in a line: In vitro virus production test of hepatitis B, HEPG2 2.2.15. Type of series: cell-based.
The test system of another series is HEPG2 2.2.15. Put plainly: Toxicity values in the hepatitis B test. The format is cell-based. Also noted: Toxicity Values, sample / Toxicity Values, mean: unit not given here.
The subject of the next series is vero cells. The experiment in a line: Herpes simplex testing, toxicity (TC50). Also noted: unit not given beside the values.
For the next series, the system named is Cryptococcus neoformans. The experiment in a line: Anti-fungal activity, MFC (NCCLS M-27A based). The format is cell-based. Particulars: cidal level. The protocol:
(§1) It was active against Cryptococcus neoformans and Curvularia lunata. The cidal activity for the C. neoformans is high enough that it is clear […] against this yeast. This test was conducted using a method based upon NCCLS reference method M-27A published in 1997. Solvent, medium and growth controls were set-up with the tests. Once these were read to validate the test performance, the QC fungi were read to insure they had expected results. These steps validated the test system. DMSO was used as a drug-chemical solvent. […] The 90% cut-off is necessary for azoles, which are static and not cidal. The […] or cidal level, was determined by sub-culturing a sample from each tube showing no growth.

The subject of another series is Curvularia lunata. The experiment in a line: Anti-fungal activity, MIC (NCCLS M-27A based). The format is cell-based. The settings on record: growth inhibited or reduced at least 90%. How it is done:
as §1

Series [1] is described as follows: Toxicity values in the HHV8 test. The format is cell-based. Particulars: human, TPA-induced BCBL-1 cells; read-out: TC50 (the source's name). How it is done: (§2) Toxicity quantification involves the XTT-based evaluation. Assays were designed to characterize the long term effects of the compounds on virus production and to characterize the longer term effects of the compounds on virus production from chronically HIV infected cells.
(§3) The DNA copy number and the toxicity value were measured and compared with Cidofovir. Kaposi's sarcoma (KS) is a cancer that is often found in people with weak immune systems, such as those taking immunosuppressants or those with AIDS. The exact nature of the disease is uncertain, but it is almost always found in association with HHV8.

Another series deals with TPA-induced BCBL-1 cells. Put plainly: Toxicity values in the HHV8 test. Type of series: cell-based. The protocol: as §2, §3
Series [2] relates to Human Herpes Virus 8 (HHV8). The experiment in a line: Kaposi's sarcoma / HHV8 DNA copy number in TPA-induced BCBL-1 cells. The format is cell-based. The settings on record: HHV8, BCBL-1 cells. How it is done:
as §3

In the next series the test system is BVDV. Put plainly: BVDV testing in vitro. The format is cell-based, bovine diarrhea virus. The settings on record: first test. An excerpt: DMSO had no effect, as expected.
BVDV is a bovine diarrhea virus and is a well known surrogate virus for hepatitis C which cannot be cultured in vitro.

The IC50 is the point on the concentration scale where inhibition reaches its midpoint. Usually MFC stands for the smallest concentration meeting the test's criterion for killing the fungus. In general, MIC refers to the least concentration at which growth counts as inhibited.

For `Nc1ccn([C@@H]2CS[C@H](CO)O2)c(=O)n1` [3TC, lamivudine, reference compound], the “DNA Copy Number (per 3 μl), sample” value in the series with hepatitis B (0.1 μg/ml) was 73.0 per 3 μl. The “% virus control” value in the series with hepatitis B (1 μg/ml) is 1.4%. Further, in the series with hepatitis B (1 μg/ml), the “DNA Copy Number (per 3 μl), mean” value was determined as 4.0 per 3 μl. The IC50 with hepatitis B (Hepatitis B virus, HepG2 2.2.15) is 0.021 µg/mL (≈ 0.0916 µM); in the series on hepatitis B (hepatitis B, HEPG2 2.2.15) it was 0.089 µg/mL (≈ 0.388 µM). The “% cell control” value came to 90.8% in the series with HEPG2 2.2.15 (0.0032 μg/ml); 84.6% in the series on HEPG2 2.2.15 (0.01 μg/ml); 94.3% with HEPG2 2.2.15 (0.032 μg/ml); 93.6% in the series with HEPG2 2.2.15 (0.32 μg/ml); 106.5% with HEPG2 2.2.15 (1 μg/ml). The “Toxicity Values, mean” value came to 1.137 in the series with HEPG2 2.2.15 (0.0032 μg/ml); 1.060 in the series with HEPG2 2.2.15 (0.01 μg/ml); 1.181 with HEPG2 2.2.15 (0.032 μg/ml); 1.190 in the series with HEPG2 2.2.15 (0.1 μg/ml); 1.172 in the series with HEPG2 2.2.15 (0.32 μg/ml); 1.334 with HEPG2 2.2.15 (1 μg/ml). Also, the “Toxicity Values, sample” value in the series with HEPG2 2.2.15 (0.0032 μg/ml) is 1.173 and 1.230 and 1.009; in the series with HEPG2 2.2.15 (0.01 μg/ml), 1.081 and 1.099 and 1.001; with HEPG2 2.2.15 (0.032 μg/ml), 1.153 and 1.316 and 1.074; in the series with HEPG2 2.2.15 (0.32 μg/ml), 1.207 and 1.227 and 1.082; in the series with HEPG2 2.2.15 (1 μg/ml), 1.256 and 1.322 and 1.423. Also, the TC50 with HEPG2 2.2.15 (HEPG2 2.2.15) was greater than 1 µg/mL; with HEPG2 2.2.15 (HEPG2 2.2.15, replicate experiment) it was greater than 1 µg/mL.
Molecule `Nc1nc2c(ncn2COCCO)c(=O)[nH]1` [Acyclovir, reference compound] returned a TC50 with vero cells greater than 1.
In the case of `C[C@@H]1[C@H](O)[C@@H](C)/C=C/C=C/C=C/C=C/C=C/C=C/C=C/[C@H](O[C@@H]2O[C@H](C)[C@@H](O)[C@H](N)[C@@H]2O)C[C@@H]2O[C@](O)(C[C@@H](O)C[C@@H](O)[C@H](O)CC[C@@H](O)C[C@@H](O)CC(=O)O[C@H]1C)C[C@H](O)[C@H]2C(=O)O` [AmB, amphotericin B], in the series with Cryptococcus neoformans, the MFC came to 0.5 µg/mL (≈ 0.541 µM). The molecule further yielded an MIC in the series with Curvularia lunata of 0.06 µg/mL (≈ 0.0649 µM).
With `Nc1ccn(C[C@@H](CO)OCP(=O)(O)O)c(=O)n1` [Cidofovir, reference compound], the CC50 in [1] is 21.1 µM. Further, the “% cell control” value came out at 83.9% with TPA-induced BCBL-1 cells (0.08 μM); 90.1% in the series with TPA-induced BCBL-1 cells (0.25 μM); 82.8% with TPA-induced BCBL-1 cells (0.8 μM); 75.0% in the series on TPA-induced BCBL-1 cells (2.5 μM); 69.3% in the series on TPA-induced BCBL-1 cells (8 μM); 4403% in the series with TPA-induced BCBL-1 cells (25 μM). In addition, the TI entry in [2] was “TI = 19.2”.
Take `CCC(C)n1ncn(-c2ccc(N3CCN(c4ccc(OCC5COC(Cn6cncn6)(c6ccc(Cl)cc6Cl)O5)cc4)CC3)cc2)c1=O` (stereo not shown) [Itra, Itraconazole]: in the series on Cryptococcus neoformans (read-out: MFC), the MFC came out at 32 µg/mL (≈ 45.3 µM).
Consider `COC(=O)Nc1nc2ccccc2[nH]1` [Methyl, methyl 1,2-benzmimidazole carbamate or benomyl], for which the minimum fungicidal concentration (MFC) with Cryptococcus neoformans turned out to be 32 µg/mL (≈ 167 µM). The same molecule came in with an MIC in the series on Curvularia lunata of 0.03 µg/mL (≈ 0.157 µM).
`NC(=O)c1ncn([C@@H]2O[C@H](CO)[C@@H](O)[C@H]2O)n1` [Ribavirin, reference compound]: the “Antiviral Index (AI), TC50/IC50” value in the series with BVDV is 2.25.
For the molecule `c1ccc2[nH]c(-c3cscn3)nc2c1` [Thia, thiabendazole], the minimal fungicidal concentration (MFC) in the series with Cryptococcus neoformans (read-out: MFC) is 32 µg/mL (≈ 159 µM). Moreover, the MIC in the series with Curvularia lunata (read-out: MIC) turned out to be 0.03 µg/mL (≈ 0.149 µM).
